Assays:
[1] = molecular target: T1, integrin α4β7 (RPMI8866 human cells adhering to MAdCAM-1) (Homo sapiens, UniProt P13612+P26010); test: Integrin α4β7-MAdCAM cell adhesion assay (RPMI8866 cells); assay type: cell-based; conditions: RPMI8866 cells adhering to MAdCAM; read-out: RPMI8866 Adhesion α4β7/MAdCAM IC50
T1 construct: RMP18866 cells, which express integrin α4β7; host or cells: RPMI8866
T1 sequence (P13612 34-1032): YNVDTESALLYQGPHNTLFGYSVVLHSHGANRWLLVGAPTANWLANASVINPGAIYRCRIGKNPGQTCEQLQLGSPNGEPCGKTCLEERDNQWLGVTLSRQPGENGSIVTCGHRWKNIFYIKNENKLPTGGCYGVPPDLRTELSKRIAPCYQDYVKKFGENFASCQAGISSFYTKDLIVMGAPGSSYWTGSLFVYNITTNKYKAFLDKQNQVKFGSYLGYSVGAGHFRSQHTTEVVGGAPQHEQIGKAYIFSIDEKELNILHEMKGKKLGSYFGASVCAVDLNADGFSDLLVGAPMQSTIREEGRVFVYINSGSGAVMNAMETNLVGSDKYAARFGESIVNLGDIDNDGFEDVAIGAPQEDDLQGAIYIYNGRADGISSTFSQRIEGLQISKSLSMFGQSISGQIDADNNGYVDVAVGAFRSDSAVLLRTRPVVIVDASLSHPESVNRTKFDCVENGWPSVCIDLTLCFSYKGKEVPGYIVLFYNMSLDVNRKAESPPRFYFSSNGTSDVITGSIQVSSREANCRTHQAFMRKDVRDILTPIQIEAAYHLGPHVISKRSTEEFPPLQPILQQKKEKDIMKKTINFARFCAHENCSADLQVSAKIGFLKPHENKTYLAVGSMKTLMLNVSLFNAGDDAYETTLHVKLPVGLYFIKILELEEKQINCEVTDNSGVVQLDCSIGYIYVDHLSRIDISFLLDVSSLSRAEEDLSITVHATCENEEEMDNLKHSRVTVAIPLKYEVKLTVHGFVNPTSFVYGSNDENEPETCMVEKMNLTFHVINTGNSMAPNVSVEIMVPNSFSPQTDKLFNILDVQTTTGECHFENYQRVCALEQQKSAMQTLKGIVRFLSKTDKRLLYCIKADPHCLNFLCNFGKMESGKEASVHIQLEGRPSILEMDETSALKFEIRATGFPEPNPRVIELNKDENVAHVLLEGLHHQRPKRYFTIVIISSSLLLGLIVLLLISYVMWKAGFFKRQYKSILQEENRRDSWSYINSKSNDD
T1 sequence (P26010 20-798): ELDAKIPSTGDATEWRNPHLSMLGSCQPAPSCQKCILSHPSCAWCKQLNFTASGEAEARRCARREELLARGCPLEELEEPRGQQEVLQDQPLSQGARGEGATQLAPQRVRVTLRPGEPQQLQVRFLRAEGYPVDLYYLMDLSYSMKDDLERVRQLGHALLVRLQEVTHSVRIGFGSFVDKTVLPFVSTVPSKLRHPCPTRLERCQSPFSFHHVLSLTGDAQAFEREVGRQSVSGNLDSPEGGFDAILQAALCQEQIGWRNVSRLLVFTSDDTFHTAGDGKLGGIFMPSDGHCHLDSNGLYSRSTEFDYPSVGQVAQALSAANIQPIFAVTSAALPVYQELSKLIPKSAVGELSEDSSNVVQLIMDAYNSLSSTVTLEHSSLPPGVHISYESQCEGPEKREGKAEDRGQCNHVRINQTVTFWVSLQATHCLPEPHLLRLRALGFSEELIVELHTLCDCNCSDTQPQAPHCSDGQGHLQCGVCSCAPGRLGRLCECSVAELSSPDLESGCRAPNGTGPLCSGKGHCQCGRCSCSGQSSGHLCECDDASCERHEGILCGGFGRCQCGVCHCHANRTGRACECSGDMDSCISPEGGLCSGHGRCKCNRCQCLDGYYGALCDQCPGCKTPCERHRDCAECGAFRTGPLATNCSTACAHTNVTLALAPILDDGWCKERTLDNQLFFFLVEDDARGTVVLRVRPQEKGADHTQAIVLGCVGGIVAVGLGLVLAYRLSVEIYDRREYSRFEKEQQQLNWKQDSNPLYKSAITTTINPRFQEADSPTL
Procedure: Integrin α4β7-MAdCAM Cell Adhesion Assay
(§1) RPMI8866 cells were resuspended at 10 million cells/ml in PBS containing […] and incubated at 37° C. for 30 min in a 50 ml tube. […] The plate was emptied by inverting and blotting on paper towels and washed manually twice with PBS. 100 μl PBS was then added to each well. […] To calculate the dose response, the fluorescence value of control wells not containing cells was subtracted from each test well.

[2] = molecular target: T2, integrin α4β1 (RAMOS human cells adhering to VCAM-1) (Homo sapiens, UniProt P05556+P13612); test: Integrin α4β1-VCAM cell adhesion assay (RAMOS cells); assay type: cell-based; conditions: for IC50: Ramos cells adhering to VCAM, read-out: Ramos Adhesion α4β1/VCAM IC50
T2 construct: Ramos cells, which express integrin α4β1; host or cells: RAMOS
T2 sequence (P05556 21-798, one chain of several): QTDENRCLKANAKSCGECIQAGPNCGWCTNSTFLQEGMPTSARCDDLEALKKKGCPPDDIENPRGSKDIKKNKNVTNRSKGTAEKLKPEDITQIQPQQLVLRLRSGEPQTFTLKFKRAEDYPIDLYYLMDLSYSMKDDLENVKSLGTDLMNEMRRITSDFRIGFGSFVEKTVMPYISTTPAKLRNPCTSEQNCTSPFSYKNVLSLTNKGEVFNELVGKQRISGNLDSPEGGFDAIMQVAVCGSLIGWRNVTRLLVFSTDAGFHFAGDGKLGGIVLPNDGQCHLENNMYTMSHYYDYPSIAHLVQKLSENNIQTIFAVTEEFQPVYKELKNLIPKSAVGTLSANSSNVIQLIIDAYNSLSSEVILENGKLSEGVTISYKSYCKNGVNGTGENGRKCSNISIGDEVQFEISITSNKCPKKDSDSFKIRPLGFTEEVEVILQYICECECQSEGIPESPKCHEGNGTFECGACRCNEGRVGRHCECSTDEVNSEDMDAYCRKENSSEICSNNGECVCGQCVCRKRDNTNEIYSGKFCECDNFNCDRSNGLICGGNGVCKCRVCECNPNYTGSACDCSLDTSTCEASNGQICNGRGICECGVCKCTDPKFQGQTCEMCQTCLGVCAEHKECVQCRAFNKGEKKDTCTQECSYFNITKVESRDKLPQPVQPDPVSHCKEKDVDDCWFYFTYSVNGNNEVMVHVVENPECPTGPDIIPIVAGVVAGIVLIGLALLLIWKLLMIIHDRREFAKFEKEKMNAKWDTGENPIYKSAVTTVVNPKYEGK
Procedure: Integrin α4β1-VCAM Cell Adhesion Assay
as §1, with “The plate was incubated overnight at 4° C. and washed twice with 150 μl per well wash buffer (0.05% Tween 20 in PBS), blocked with 250 μl per well blocking buffer (1% non-fat dry milk in PBS), for 1 hour at room temperature. During blocking step, RAMOS” for “RPMI8866”, “PBS.” for “PBS. 100 μl PBS was then added to each well.”

With `CC(C)C[C@@H]1NC(=O)c2ccc(-c3ccc(N4CCN(C(=O)c5cc6ccccc6c(Cc6c(O)c(C(=O)N7CCN(c8ccc(-c9ccc%10cc9CNC(=O)[C@@H]9CCCN9[C@H](C(=O)NC(C)(C)C)[C@H](C)NC(=O)[C@H]([C@@H](C)O)NC(=O)[C@H](CC(=O)O)NC(=O)[C@H](CC(C)C)NC%10=O)cc8)CC7)cc7ccccc67)c5O)CC4)cc3)c(c2)CNC(=O)[C@@H]2CCCN2[C@H](C(=O)NC(C)(C)C)[C@H](C)NC(=O)[C@H]([C@@H](C)O)NC(=O)[C@H](CC(=O)O)NC1=O` [Compound 502] the IC50 [1] was 102 nM, the IC50 [2] was 779 nM and the “Ratio Ramos/RPMI” value ([2]; ratio of cell adhesion IC50s, Ramos α4β1/VCAM over RPMI8866 α4β7/MAdCAM) was 8.

For `CC(C)C[C@@H]1NC(=O)c2ccc(-c3ccc(N4CCN(C(=O)CCOCCOCCNC(=O)COCC(=O)NCCOCCOCCC(=O)N5CCN(c6ccc(-c7ccc8cc7CNC(=O)[C@@H]7CCCN7[C@H](C(=O)NC(C)(C)C)[C@H](C)NC(=O)[C@H]([C@@H](C)O)NC(=O)[C@H](CC(=O)O)NC(=O)[C@H](CC(C)C)NC8=O)cc6)CC5)CC4)cc3)c(c2)CNC(=O)[C@@H]2CCCN2[C@H](C(=O)NC(C)(C)C)[C@H](C)NC(=O)[C@H]([C@@H](C)O)NC(=O)[C@H](CC(=O)O)NC1=O` [Compound 506], the IC50 [2] was 11000 nM.

In the case of `CC(C)C[C@@H]1NC(=O)c2ccc(-c3ccc(N4CCN(C(=O)CCCCCCC(=O)N5CCN(c6ccc(-c7ccc8cc7CNC(=O)[C@@H]7CCCN7[C@H](C(=O)NC(C)(C)C)[C@H](C)NC(=O)[C@H]([C@@H](C)O)NC(=O)[C@H](CC(=O)O)NC(=O)[C@H](CC(C)C)NC8=O)cc6)CC5)CC4)cc3)c(c2)CNC(=O)[C@@H]2CCCN2[C@H](C(=O)NC(C)(C)C)[C@H](C)NC(=O)[C@H]([C@@H](C)O)NC(=O)[C@H](CC(=O)O)NC1=O` [Compound 487], the IC50 [1] is reported as 65 nM.

`CC(C)C[C@@H]1NC(=O)c2ccc(-c3ccc(N4CCN(C(=O)CCCCC(=O)N5CCN(c6ccc(-c7ccc8cc7CNC(=O)[C@@H]7CCCN7[C@H](C(=O)NC(C)(C)C)[C@H](C)NC(=O)[C@H]([C@@H](C)O)NC(=O)[C@H](CC(=O)O)NC(=O)[C@H](CC(C)C)NC8=O)cc6)CC5)CC4)cc3)c(c2)CNC(=O)[C@@H]2CCCN2[C@H](C(=O)NC(C)(C)C)[C@H](C)NC(=O)[C@H]([C@@H](C)O)NC(=O)[C@H](CC(=O)O)NC1=O` [Compound 486] was tested, and the IC50 [1] was 42 nM.

`CC(C)C[C@@H]1NC(=O)[C@H]2CCCCN2C(=O)[C@H](Cc2ccc(CNC(=O)CCCCC(=O)NCc3ccc(C[C@@H]4NC(=O)[C@@H]5CCCN5[C@H](C(=O)NC(C)(C)C)[C@H](C)NC(=O)[C@H]([C@@H](C)O)NC(=O)[C@H](CC(=O)O)NC(=O)[C@H](CC(C)C)NC(=O)[C@H]5CCCCN5C4=O)cc3)cc2)NC(=O)[C@@H]2CCCN2[C@H](C(=O)NC(C)(C)C)[C@H](C)NC(=O)[C@H]([C@@H](C)O)NC(=O)[C@H](CC(=O)O)NC1=O` [Compound 523] gave an IC50 [1] of 434 nM.

`CC(C)C[C@@H]1NC(=O)c2ccc(-c3ccc(N4CCN(C(=O)CC(=O)N5CCN(c6ccc(-c7ccc8cc7CNC(=O)[C@@H]7CCCN7[C@H](C(=O)NC(C)(C)C)[C@H](C)NC(=O)[C@H]([C@@H](C)O)NC(=O)[C@H](CC(=O)O)NC(=O)[C@H](CC(C)C)NC8=O)cc6)CC5)CC4)cc3)c(c2)CNC(=O)[C@@H]2CCCN2[C@H](C(=O)NC(C)(C)C)[C@H](C)NC(=O)[C@H]([C@@H](C)O)NC(=O)[C@H](CC(=O)O)NC1=O` [Compound 483] showed an IC50 [1] of 29 nM.

`CC(C)C[C@@H]1NC(=O)c2ccc(-c3ccc(N4CCN(C(=O)CCOCCOCCOCCOCCOCCC(=O)N5CCN(c6ccc(-c7ccc8cc7CNC(=O)[C@@H]7CCCN7[C@H](C(=O)NC(C)(C)C)[C@H](C)NC(=O)[C@H]([C@@H](C)O)NC(=O)[C@H](CC(=O)O)NC(=O)[C@H](CC(C)C)NC8=O)cc6)CC5)CC4)cc3)c(c2)CNC(=O)[C@@H]2CCCN2[C@H](C(=O)NC(C)(C)C)[C@H](C)NC(=O)[C@H]([C@@H](C)O)NC(=O)[C@H](CC(=O)O)NC1=O` [Compound 509] was tested, and the IC50 [1] was 31 nM.

In the case of `CC(C)C[C@@H]1NC(=O)c2ccc(-c3ccc(N4CCN(C(=O)c5ncn(C)c5C(=O)N5CCN(c6ccc(-c7ccc8cc7CNC(=O)[C@@H]7CCCN7[C@H](C(=O)NC(C)(C)C)[C@H](C)NC(=O)[C@H]([C@@H](C)O)NC(=O)[C@H](CC(=O)O)NC(=O)[C@H](CC(C)C)NC8=O)cc6)CC5)CC4)cc3)c(c2)CNC(=O)[C@@H]2CCCN2[C@H](C(=O)NC(C)(C)C)[C@H](C)NC(=O)[C@H]([C@@H](C)O)NC(=O)[C@H](CC(=O)O)NC1=O` [Compound 476], the IC50 [1] is reported as 32 nM.

`CC(C)C[C@@H]1NC(=O)c2ccc(-c3ccc(N4CCN(C(=O)CN(C)CC(=O)N5CCN(c6ccc(-c7ccc8cc7CNC(=O)[C@@H]7CCCN7[C@H](C(=O)NC(C)(C)C)[C@H](C)NC(=O)[C@H]([C@@H](C)O)NC(=O)[C@H](CC(=O)O)NC(=O)[C@H](CC(C)C)NC8=O)cc6)CC5)CC4)cc3)c(c2)CNC(=O)[C@@H]2CCCN2[C@H](C(=O)NC(C)(C)C)[C@H](C)NC(=O)[C@H]([C@@H](C)O)NC(=O)[C@H](CC(=O)O)NC1=O` [Compound 501] showed an IC50 [1] of 38 nM.

From US11713338B2, “Cyclic peptides multimers targeting α-4-β-7 integrin” (priority 2016, dated 2023)
